Data on 4 molecules can be found in US7425534B2, “Compositions and methods for modulating muscle cell and tissue contractility” (The Trustees of the University of Pennsylvania, priority 2000, dated 2008).

The assay deals with rat aortic rings. Put plainly: Phenylepherine (PE)-induced contraction of isolated rat aortic rings (isometric tension). The format is cell-based. An excerpt:
Male Sprague Dawley rats (250-275 g) were sacrificed by exsanguination and thoracic aortae were removed with care to avoid damage to the endothelium, dissected free of fat and connective tissue, and cut into transverse rings, each 5 mm in length (Kyong et al., 1992, Br. J. Pharmacol. 107:983-990; Yohtaro et al., 1987, Eur. J. Pharmacol. 131:75-78; Chang et al., 1992, Br. J. Pharmacol. 107:983-990; Oyama et al., 1986, Eur. J. Pharmacol. 132:75-78). The tissues were maintained in an oxygenated (95% O2; 5% CO2) solution of Krebs-Henseliet (KH) buffer (144 millimolar NaCl, 5.9 millimolar KCl, 1.6 millimolar CaCl2, 1.2 millimolar MgSO4, 1.2 millimolar KH2PO4, 25 millimolar NaHCO3, and 11.1 millimolar D-glucose). The aortic rings were mounted to record isometric tension in a 10 milliliter bath containing KH solution under continuous aeration. The aortic rings were equilibrated for 1.5 hours at 37° C. and maintained under a resting tension of 2 g throughout the experiment. Each aortic ring was then contracted by adding phenylepherine (PE) in stepwise increments raising the concentration of PE from 10^−10 molar to 10^−5 molar. […] In every experiment, aortic rings exposed to KH buffer alone were analyzed in parallel as controls. Isometric tension was evaluated using a force displacement transducer and recorded online using a computerized system (ExperimentiaAE, Budapest, Hungary).

Take `CNC[C@H](O)c1cccc(O)c1` [PE, phenylepherine, reference compound]: the EC50 (PE alone, K-H buffer, no uPA species) came out at 29 nM. In other words, the double-digit nanomolar range. For “ATF: amino terminal fragment of urokinase, amino acids 1-135, growth factor domain plus kringle, SEQ ID NO:4”, the “Contractility enhancing activity in the presence of suPAR” value (10 nM ATF + 10 nM suPAR (FIG. 3)) was “abolished”. For the same molecule, the “Potency at enhancing vascular smooth muscle tissue contractility relative to tcuPA” value (compare FIGS. 2 and 3) is 6 fold.

As to “GFD: growth factor domain of uPA which binds to uPAR, SEQ ID NO:2 (SNELHQVPSNCDCLNGGTCVSNKYFSNIHWCNCPKKFGGQHCEIDKS; listed as Homo sapiens)”, the “Effect upon PE-induced aortic contraction / vasoconstriction” value (10 nM uPA species (FIGS. 5A, 5B; GFD 10 nanomolar)) is reported as “did not enhance contractility”.

B1: uPA kringle: kringle domain of uPA, amino acids 47-135, SEQ ID NO:1 (protein, listed as Homo sapiens)
chain: KTCYEGNGHFYRGKASTDTMGRPCLPWNSATVLQQTYHAHRSDALQLGLGKHNYCRNPDNRRRPWCYVQVGLKPLVQECMVHDCADGK
B1: the “Direct induction of vasoconstriction” value (uPA kringle without PE effect (FIG. 4)) is “did not induce vasoconstriction directly”.
